Patent US10723764B2, “Anti-microbial peptides and methods of use thereof” (priority 2011, dated 2020)
Converted amounts (≈) assume the structure as drawn. Where a SMILES comes first, the peptide text is derived from it. Where no end group is shown, it is not given here. [ ]: non-standard residue; d: D form. Bip = N[C@@H](Cc1ccc(-c2ccccc2)cc1)C(=O)O

Key:
[1] = tested on: Pseudomonas aeruginosa PAO1; assay type: cell-based
Procedure: (§1) The bacterial strains used in the study are Bacillus subtilis 168, methicillin-resistant Staphylococcus aureus USA300 LAC (Gram-positive), Escherichia coli K12, and Pseudomonas aeruginosa PAO1 (Gram negative). The antibacterial activities of the peptides were determined using the standard broth microdilution method (Wang et al. (2005) J. Biol. Chem., 280:5803-5811). In brief, the bacterial culture (90 μL) was treated with a series of peptide solutions (10 μL), each with two-fold dilution. After overnight incubation at 37° C., the microplate was read on a ChroMate® 4300 Microplate Reader at 630 nm (GMI, Ramsey, Minn.).
(§2) For the initial screen, antimicrobial activities of these peptides against S. aureus and E. coli were evaluated using the standard broth microdilution protocol (Wang, G. (2008) J. Biol. Chem., 283:32637-43). […] Subsequently, the in vitro activity of these six peptides was evaluated against Bacillus subtilis and Pseudomonas aeruginosa (Table 6). […] While maculatin 1.3 is active against two Gram-positive but not two Gram-negative bacterial strains, DASamP1 is species-specific since it active only against S. aureus. The finding that ascaphin-8, […], and piscidin 1 are wide-spectrum AMPs agrees with the literature (Apponyi et al. (2004) Peptides 25:1035-1054; Conlon et al. (2004) Biochem. Biophys. Res. Commun., 320:170-175; Silphaduang et al. (2001) Nature 414:268-269; Souza et al. (2005) J. Immunol., 186:6585-6596). For lycotoxin I, it was previously found to active against Gram-negative E. coli and yeast (Yan et al. (1998) J. Biol. Chem., 273:2059-2066).
(§3) The antibacterial activities of the peptides were determined using the standard broth microdilution method (Mishra et al. (2012) J. Am. Chem. Soc., 134:12426-12429; Wang et al. (2005) Biol. Chem., 280:5803-5811). Briefly, the bacterial culture was treated with a series of peptide solutions, each with two-fold dilution. After overnight incubation at 37° C., the microplate was read on a ChroMate® 4300 Microplate Reader at 630 nm (GMI, Ramsey, Minn.).

human erythrocytes = tested on: human erythrocytes
Procedure: Peptide hemolysis was assayed using an established protocol (Malmsten et al. (2011) PLoS One 6:e16400). In brief, fresh blood, obtained from the UNMC Blood Bank, was washed three times with PBS buffer and made into a 5% solution. To 90 μL of this solution, 10 μL of a peptide solution was added and incubated at 37° C. for one hour. After centrifugation at 13,000 rpm, aliquots of the supernatant were transferred to a fresh 96 well microplate. The absorbance of the solutions was measured at 545 nm to detect the amount of hemoglobin released. The percent lysis was calculated by assuming 100% release when treated with 2% Triton X-100 and no lysis (0%) when treated with PBS buffer. HL50 was the peptide concentration that caused 50% lysis of human erythrocytes. The cell selectivity (CS) indexes were calculated as the ratio of HL50 to the MIC of the peptide against S. aureus USA300.
The hemolytic effects of the six peptides were also compared on human red blood cells (hRBC) using an established protocol (Malmsten et al. (2011) PLoS One 6:e16400). […] A high TI indicates good cell selectivity.
Peptide hemolysis was assayed using an established protocol (Menousek et al. (2012) Int. J. Antimicrob. Agents 39:402-406; Malmsten et al. (2011) PLoS One 6:e16400). Briefly, blood cells were washed three times with phosphate-buffered saline (PBS) and were diluted to a 5% solution. Following peptide treatment, incubation at 37° C. for 1 hour and centrifugation at 13,000 rpm, aliquots of the supernatant were transferred to a fresh 96-well microplate. To assess peptide cytotoxicity, the amount of hemoglobin released was measured at 545 nm. Percent lysis was calculated by assuming 100% release when human blood cells were treated with 2% Triton X-100 and 0% release when they were incubated with PBS buffer.

chymotrypsin = chymotrypsin (Bos taurus, UniProt P00766); assay: Peptide stability to chymotrypsin by SDS-PAGE; assay type: in vitro ADME, bovine; details: for time the peptide stays intact in the presence of chymotrypsin: 12.5 μM chymotrypsin, peptide/protein 40:1, PBS pH 8, 37° C.
Procedure: A solution (100 μl) of the peptide and 12.5 μM chymotrypsin (peptide/protein molar ratio, 40:1) in 10 mM PBS buffer (pH 8) was incubated at 37° C. Aliquots (10 μl) of the reaction solutions were taken at 0, 2, 4, and 22 hours and immediately mixed with 20 μl of 2×SDS loading buffer to stop the reaction. For the gel analysis, 10 μl of each sample was loaded to the well of a 5% stacking/18% resolving tricine gel. The samples in the lanes are: 1, protein marker; 2, temporin-PTa L-form at 0 hour; 3, 2 hours; 4, 4 hours; 5, 22 hours; 6, temporin-PTa D-form at 0 hour; 7, 2 hours; 8, 4 hours; 9, 22 hours. In the gel, the bands for the peptide and chymotrypsin were indicated with large and small arrows, respectively. Note that the peptide bands were not detected in lanes 3-5 due to protease cleavage but remained essentially constant in lanes 7-9.
Peptide stability was evaluated using standard SDS-PAGE (described in FIG. 5).
(§4) Peptide stability was evaluated based on a published protocol (Mishra et al. (2012) J. Am. Chem. Soc., 134:12426-12429) with one modification. Aliquots (10 μL) of the reaction solutions (peptide/protease molar ratio, 40:1) in 10 mM PBS buffer (pH 8) at 37° C. were taken at 0, 6, and 24 hours and immediately mixed with 10 μL of 2×SDS loading buffer followed by boiling for 5 minutes to stop the reaction. Samples were analyzed using 5% stacking/18% resolving tricine gel.

E. faecium ATCC51559 = assay type: cell-based, Enterococcus faecium; details: ATCC51559
Procedure: as §3

A. baumannii B2367-12 = assay type: cell-based, Acinetobacter baumanii
Procedure: as §3

E. cloacae B2366-12 = assay type: cell-based; details: B2366-12
Procedure: as §3

ESKAPE pathogens = assay type: cell-based
Procedure: as §3
A rational design was conducted on the basis of the 3D structure of GF-17d3. […] The noncoherent packing of the GF-17d3 side chains caused a hydrophobic defect in the structure (FIGS. 8C and 8D, arrow), leading to reduced hydrophobicity. Accordingly, it was hypothesized that the antimicrobial activity of this peptide 17F2 (sequence GX1KRLVQRLKDX2LRNLV (SEQ ID NO: 58), Table 9) could be enhanced by filling in the hydrophobic cavity (FIG. 8D, arrow) with a larger hydrophobic side chain. The antimicrobial activities of these peptide analogues were evaluated using the standard microdilution assays (Mishra et al. (2012) J. Am. Chem. Soc., 134:12426-12429), and the minimal inhibitory concentrations (MIC) against a panel of the ESKAPE pathogens are provided in Table 10. […] To compare the two sites, these two substitutions at positions X1 and X2 were swapped to obtain 17Naph-mF. […] In addition, biphenylalanines were incorporated at position X1 alone or at both X1 and X2 of the 17F2 template. […] The killing abilities of these peptides are essentially proportional to their MIC values as well as retention times (a measure of hydrophobicity) on a reverse-phase HPLC column (Mishra et al. (2012) J. Am. Chem. Soc., 134:12426-12429).

S. aureus V8 protease = S. aureus V8 protease (Staphylococcus aureus, UniProt P0C1U8); assay type: in vitro ADME; details: peptide/protease 40:1, PBS pH 8, 37° C.
Procedure: (§5) FIG. 10 provides a stability comparison of synthetic 17BIPHE2 with GF-17 in the presence of bovine chymotrypsin, porcine trypsin, S. aureus protease V8, and fungal protease K. Two samples were analyzed in this gel for each protease: 0 and 6 hours for GF-17 and 0 and 24 hours for 17BIPHE2.
as §4

fungal protease K = fungal protease K (Parengyodontium album, UniProt P06873); assay: Peptide stability to fungal protease K by SDS-PAGE; assay type: in vitro ADME; details: peptide/protease 40:1, PBS pH 8, 37° C.
Procedure: as §5, §4

[2] = tested on: methicillin-resistant Staphylococcus aureus USA300 LAC
Procedure: This was done by modifying the standard microdilution antimicrobial assays (Wang, G. (2008) J. Biol. Chem., 283:32637-32643). Specifically, the bacterial wells with a high peptide concentration (e.g. 100 μM) are duplicated (e.g., two for antimicrobial assays and two for protease stability assays). As an illustration, chymotrypsin was applied to the duplicated wells at a peptide:protease molar ratio of 25:1.

Escherichia coli K12 = details: Table 8
Bacillus subtilis 168 = assay type: cell-based
Procedure: as §1, §2

[3] = Peptide solubility (observation); assay type: physicochemical

Chain of S. aureus V8 protease (P0C1U8 69-336): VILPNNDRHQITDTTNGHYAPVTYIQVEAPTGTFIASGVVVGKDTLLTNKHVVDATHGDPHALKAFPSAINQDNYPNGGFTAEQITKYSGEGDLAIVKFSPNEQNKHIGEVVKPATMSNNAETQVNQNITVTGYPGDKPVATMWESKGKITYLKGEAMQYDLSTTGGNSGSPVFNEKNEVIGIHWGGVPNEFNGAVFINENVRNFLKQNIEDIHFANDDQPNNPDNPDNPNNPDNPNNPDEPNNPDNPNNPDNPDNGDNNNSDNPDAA
Chain of fungal protease K (P06873 106-384): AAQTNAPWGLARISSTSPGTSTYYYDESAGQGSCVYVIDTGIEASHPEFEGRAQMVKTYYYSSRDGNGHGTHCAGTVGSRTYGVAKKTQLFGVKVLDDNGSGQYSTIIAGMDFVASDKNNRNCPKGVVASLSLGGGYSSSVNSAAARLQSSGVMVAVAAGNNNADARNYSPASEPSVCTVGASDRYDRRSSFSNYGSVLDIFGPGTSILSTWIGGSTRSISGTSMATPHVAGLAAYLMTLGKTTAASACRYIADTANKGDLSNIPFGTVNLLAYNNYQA

With `CC(C)C[C@H](NC(=O)[C@H](CC(N)=O)NC(=O)[C@H](CCCNC(=N)N)NC(=O)[C@@H](CC(C)C)NC(=O)[C@H](Cc1ccc(-c2ccccc2)cc1)NC(=O)[C@H](CC(=O)O)NC(=O)[C@H](CCCCN)NC(=O)[C@@H](CC(C)C)NC(=O)[C@H](CCCNC(=N)N)NC(=O)[C@H](CCC(N)=O)NC(=O)[C@@H](NC(=O)[C@@H](CC(C)C)NC(=O)[C@H](CCCNC(=N)N)NC(=O)[C@H](CCCCN)NC(=O)[C@H](Cc1ccc(-c2ccccc2)cc1)NC(=O)CN)C(C)C)C(=O)N[C@H](C(N)=O)C(C)C` [D128A, GX1KRLVQRLKDX2LRNLV-amide] (H-G[Bip]KR[dL]VQR[dL]KD[Bip][dL]RNLV-NH2) the “MIC (μM) PA” value [1] was 6.2 µM (≈ 14 µg/mL), the “HL50 (μM), peptide concentration at which 50% human red blood cells were lysed” value (human erythrocytes; Table 8) was 150 µM and the “HL50 (μM), peptide concentration that causes 50% lysis of human erythrocytes” value (human erythrocytes; Table 10) was 225 µM. For the same compound, the “level of intact peptide in the presence of chymotrypsin” value (chymotrypsin; during 4 hours) was “remained constant”, the “MIC (μM) EF” value (E. faecium ATCC51559) was 3.1 µM (≈ 6.99 µg/mL) and the “MIC (μM) AB” value (A. baumannii B2367-12) was 3.1 µM (≈ 6.99 µg/mL). The “MIC (μM) EC” value (E. cloacae B2366-12) was 3.1 µM (≈ 6.99 µg/mL), the “MIC against all of the ESKAPE pathogens” value (ESKAPE pathogens) was 3.1 to 6.2 µM and the “time stable in the presence of S. aureus V8 protease” value (S. aureus V8 protease) was “at least 24 hours”. The “time stable in the presence of fungal protease K” value (fungal protease K) was “at least 24 hours”, the “MIC (μM) SA” value ([2]; S. aureus USA300 LAC, Table 10) was 3.1 µM (≈ 6.99 µg/mL) and the “S. aureus USA 300 MIC” value ([2]; Table 8) was 5 µM. The “E. coli K12 MIC” value (Escherichia coli K12) was 2.5 µM.
In the case of `CC[C@@H](C)[C@@H](NC(=O)[C@@H](CCCCN)NC(=O)[C@H]1CCCN1C(=O)[C@H](NC(=O)[C@@H](CC(C)C)NC(=O)[C@@H](CCCCN)NC(=O)[C@@H](CC(C)C)NC(=O)[C@H](NC(=O)[C@@H](CO)NC(=O)CNC(=O)[C@@H](Cc1ccccc1)NC(=O)[C@H](N)Cc1ccccc1)C(C)C)[C@H](C)CC)C(=O)N[C@H](CC(C)C)C(N)=O` [Temporin-PTa (D-form)], the “MIC (μM) BS” value (Bacillus subtilis 168) is reported as 6.25 µM (≈ 9.21 µg/mL), the “MIC (μM) PA” value [1] is reported as over 100 µM and the “time the peptide stays intact in the presence of chymotrypsin” value (chymotrypsin) is reported as “at least 22 hours”.
In the case of `CC[C@H](C)[C@H](NC(=O)[C@H](CCCCN)NC(=O)[C@@H]1CCCN1C(=O)[C@@H](NC(=O)[C@H](CC(C)C)NC(=O)[C@H](CCCCN)NC(=O)[C@H](CC(C)C)NC(=O)[C@@H](NC(=O)[C@H](CO)NC(=O)CNC(=O)[C@H](Cc1ccccc1)NC(=O)[C@@H](N)Cc1ccccc1)C(C)C)[C@@H](C)CC)C(=O)N[C@@H](CC(C)C)C(N)=O` [Temporin-PTa, reference compound], the “time the peptide stays intact in the presence of chymotrypsin” value (chymotrypsin) is reported as at most 2 h.
With FFGSLLKLLPKLL-NH2 [Temporin-PTa6L] the “MIC (μM) BS” value (Bacillus subtilis 168) was 3.12 µM.
For “GIIPIISIIGKII-NH2 (C-terminus assumed) [DFTamP1-pi]”, the solubility [3] was “poorly soluble”.
For LLGSLLKLLPKLL-NH2 [Temporin-PTa8L], the “MIC (μM) BS” value (Bacillus subtilis 168) was 3.12 µM and the “MIC (μM) PA” value [1] was over 100 µM.
